Source: patent publication US12077503B2, “Substituted cyclic amides and their use as herbicides” (FMC CORPORATION, priority 2015, dated 2024)

Key:
Format in all cases: in vivo
[1] = system: ducksalad (Heteranthera limosa); test: Test B flooded paddy test; conditions: Heteranthera limosa, 250 g ai/ha, Flood; 0 to 100 scale where 0 is no effect and 100 is complete control; read-out: Ducksalad plant response rating
Summary of the method: (§1)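 Evaluation by eye, against controls, occurred 13–15 d post-treatment in a greenhouse, using a 0 (no effect) to 100 (complete control) scale. Application was into the paddy water, 3 cm deep over the soil, on 2-leaf plants.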

rice (Oryra sativa) = test: Test B flooded paddy test; conditions: Oryza sativa, 250 g ai/ha, Flood; 0 to 100 scale where 0 is no effect and 100 is complete control; read-out: Rice plant response rating
Summary of the method: as §1

[2] = system: sedge, umbrella (small-flower umbrella sedge, Cyperus difformis); test: Test B flooded paddy test; conditions: Cyperus difformis, 250 g ai/ha, Flood; 0 to 100 scale where 0 is no effect and 100 is complete control; read-out: Sedge, Umbrella plant response rating
Summary of the method: as §1

[3] = system: barnyardgrass (Echinochloa crus-galli); test: Test B flooded paddy test; conditions: Echinochloa crus-galli, 250 g ai/ha, Flood; 0 to 100 scale where 0 is no effect and 100 is complete control; read-out: Barnyardgrass plant response rating
Summary of the method: as §1

Kochia (Kochia scoparia) [4] = test: Test A preemergence; conditions: Bassia scoparia, pre-emergence, 240 h, 0 to 100 scale where 0 is no effect and 100 is complete control, read-out: Kochia plant response rating
Summary of the method: (§2)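 Seeds sprayed preemergence with a directed soil spray, or plants at 2 to 10 cm height and one- to two-leaf stage sprayed postemergence, with test chemicals in a non-phytotoxic solvent mixture containing surfactant, in loam soil–sand blend. Injury rated visually against untreated controls after about 10 d in greenhouse, 0 (no effect) to 100 (complete control).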

[5] = system: pigweed (Amaranthus retroflexus); test: Test A preemergence; conditions: Amaranthus retroflexus, pre-emergence, 240 h, 0 to 100 scale where 0 is no effect and 100 is complete control, read-out: Pigweed plant response rating
[6] = system: ragweed (common ragweed, Ambrosia elatior); test: Test A preemergence; conditions: Ambrosia artemisiifolia, pre-emergence, 240 h, 0 to 100 scale where 0 is no effect and 100 is complete control, read-out: Ragweed plant response rating
Summary of the method: as §2

[7] = system: giant foxtail (Setaria faberii); test: Test A preemergence; conditions: Setaria faberi, pre-emergence, 240 h, 0 to 100 scale where 0 is no effect and 100 is complete control, read-out: Foxtail, Giant plant response rating
Summary of the method: as §2

[8] = system: ryegrass, Italian (Italian ryegrass, Lolium multiflorum); test: Test A preemergence; conditions: Lolium multiflorum, pre-emergence, 240 h, 0 to 100 scale where 0 is no effect and 100 is complete control, read-out: Ryegrass, Italian plant response rating
Summary of the method: as §2

[9] = system: barnyardgrass (Echinochloa crus-galli); test: Test A preemergence; conditions: Echinochloa crus-galli, pre-emergence, 240 h, 0 to 100 scale where 0 is no effect and 100 is complete control, read-out: Barnyardgrass plant response rating
Summary of the method: as §2

Kochia (Kochia scoparia) [10] = test: Test A postemergence; conditions: Bassia scoparia, post-emergence, 240 h, read-out: Kochia plant response rating (0 to 100 scale)
Summary of the method: as §2

[11] = system: pigweed (Amaranthus retroflexus); test: Test A postemergence; conditions: Amaranthus retroflexus, post-emergence, 240 h, read-out: Pigweed plant response rating (0 to 100 scale)
Summary of the method: as §2

[12] = system: Galium (catchweed bedstraw, Galium aparine); test: Test A postemergence; conditions: Galium, post-emergence, 240 h, read-out: Galium plant response rating (0 to 100 scale)
Summary of the method: as §2

corn (Zea mays) = test: Test A postemergence; conditions: Zea mays, post-emergence, 240 h, read-out: Corn plant response rating (0 to 100 scale)
Summary of the method: as §2

[13] = system: ragweed (common ragweed, Ambrosia elatior); test: Test A postemergence; conditions: Ambrosia artemisiifolia, post-emergence, 240 h, read-out: Ragweed plant response rating (0 to 100 scale)
Summary of the method: as §2

[14] = system: wheat (Triticum aestivum); test: Test A postemergence; conditions: Triticum aestivum, post-emergence, 240 h, read-out: Wheat plant response rating (0 to 100 scale)
Summary of the method: as §2

[15] = system: giant foxtail (Setaria faberii); test: Test A postemergence; conditions: Setaria faberi, post-emergence, 240 h, read-out: Foxtail, Giant plant response rating (0 to 100 scale)
Summary of the method: as §2

[16] = system: ryegrass, Italian (Italian ryegrass, Lolium multiflorum); test: Test A postemergence; conditions: Lolium multiflorum, post-emergence, 240 h, read-out: Ryegrass, Italian plant response rating (0 to 100 scale)
Summary of the method: as §2

[17] = system: blackgrass (Alopecurus myosuroides); test: Test A postemergence; conditions: Alopecurus myosuroides, post-emergence, 240 h, read-out: Blackgrass plant response rating (0 to 100 scale)
Summary of the method: as §2

[18] = system: barnyardgrass (Echinochloa crus-galli); test: Test A postemergence; conditions: Echinochloa crus-galli, post-emergence, 240 h, read-out: Barnyardgrass plant response rating (0 to 100 scale)
Summary of the method: as §2

[19] = 125 g ai/ha, preemergence, visual injury rating, approximately 10 d
[20] = 125 g ai/ha, postemergence, visual injury vs untreated controls after approx. 10 d, 0 = no effect, 100 = complete control
[21] = Postemergence, 31 g ai/ha, 0 is no effect, 100 is complete control

`Cc1ccc([C@H]2CN(C)C(=O)[C@@H]2C(=O)Nc2cccc(F)c2C#N)cc1` [Compound 1189] gave a pest or weed control at 250 g/ha [1] of 100%, a pest or weed control at 250 g/ha (rice (Oryra sativa)) of 15% and a pest or weed control at 250 g/ha [2] of 0%. It also gave a pest or weed control at 250 g/ha [3] of 75%, a pest or weed control at 31 g/ha (Kochia (Kochia scoparia) [4]; 31 g ai/ha, Preemergence) of 40% and a pest or weed control at 125 g/ha (Kochia (Kochia scoparia) [4]; [19]) of 70%. It also gave a pest or weed control at 31 g/ha ([5]; 31 g ai/ha, Preemergence) of 0%, a pest or weed control at 125 g/ha [5, 19] of 40% and a pest or weed control at 31 g/ha ([6]; 31 g ai/ha, Preemergence) of 0%. It also gave a pest or weed control at 125 g/ha [6, 19] of 50%, a pest or weed control at 31 g/ha ([7]; 31 g ai/ha, Preemergence) of 90% and a pest or weed control at 125 g/ha [7, 19] of 100%. The pest or weed control at 31 g/ha ([8]; 31 g ai/ha, Preemergence) was 20%, the pest or weed control at 125 g/ha [8, 19] was 60% and the pest or weed control at 31 g/ha ([9]; 31 g ai/ha, Preemergence) was 90%. The pest or weed control at 125 g/ha [9, 19] was 100%, the pest or weed control at 125 g/ha (Kochia (Kochia scoparia) [10]; [20]) was 20% and the pest or weed control at 31 g/ha (Kochia (Kochia scoparia) [10]; [21]) was 0%. For the same compound, the pest or weed control at 125 g/ha [11, 20] was 0%, the pest or weed control at 31 g/ha [11, 21] was 0% and the pest or weed control at 125 g/ha [12, 20] was 50%. For the same compound, the pest or weed control at 31 g/ha [12, 21] was 30%, the plant injury at 125 g/ha (corn (Zea mays); [20]) was 20% and the plant injury at 31 g/ha (corn (Zea mays); [21]) was 0%. For the same compound, the pest or weed control at 125 g/ha [13, 20] was 40%, the pest or weed control at 31 g/ha [13, 21] was 0% and the plant injury at 125 g/ha [14, 20] was 20%. For the same compound, the plant injury at 31 g/ha [14, 21] was 0%, the pest or weed control at 125 g/ha [15, 20] was 80% and the pest or weed control at 31 g/ha [15, 21] was 70%. The pest or weed control at 125 g/ha [16, 20] was 20%, the pest or weed control at 31 g/ha [16, 21] was 0% and the pest or weed control at 125 g/ha [17, 20] was 40%. It also gave a pest or weed control at 31 g/ha [17, 21] of 20%, a pest or weed control at 125 g/ha [18, 20] of 100% and a pest or weed control at 31 g/ha [18, 21] of 70%.
